Data published in patent US12097173B2, “Volatile organic compound formulations having antimicrobial activity” (priority 2019, dated 2024).

Assays:
Assay type in all cases: cell-based
Cercospora beticola = assay: plate bioassay of volatile test mixtures, growth inhibition; conditions: 30 hr at 22° C.; esters with 1:1 v/v propanoic acid and isobutryic acid (acids to ester 7:2 v/v), 9 ul; acids 7 ul
Procedure: (§1) FIG. 1 illustrates a plate bioassay to determine the bioactivity of various esters when combined with a 1:1 mix of the two organic acids as per Table 2. The test organisms were as follows—Cercospora (dark-lower left bottom) then clockwise—Phytophthora, Verticillium, Sclerotinia, Pythium. Fusarium, Trichoderma, Rhizoctonia, and Aspergillus. The streaks were Saccharomyces (far right bottom) then Candida, E coli and Bacillus (left bottom). A=control plate, and B=plate with System 1 after incubation for 30 hr.
(§2) FIG. 9 depicts the biological activities of various test mixtures against a panel of test microbes. A small plug of each organism was placed in the periphery of the PDA plate. In the center well was placed the test solution in the plastic cup holder. A control plate (A) was also set up. After 30 hr the growth of the test organisms was compared to that of the control and the % inhibition was calculated. The (B) plate contained the test mixture. Measurements were made 30 hr after plate set up.
(§3) FIG. 1. Indicates how the assays were done to yield the data sets in Table 1. The various esters were combined with a 1:1 mixture of propanoic acid and isobutryic acid and these were added 7:2 V/V with the ester to be tested.
(§4) Shown in Table 1, are the inhibition and killing effects of propanoic acid, and isobutryic acid together and alone and with various esters. The tests were conducted over the course of 30 hr at 22° C. Measurements were made on appropriate controls and thus the percentage of inhibition calculations could be made on treatments vs the growth on a control organism (non-treated). The bacteria and yeast like organisms were evaluated on the basis of relative growth rates after 30 hr. Those highlighted areas on the table show those compounds (esters) having the most compatibility with propanoic and isobutryic acid 1:1 v/v mixtures with the appropriate esters at a 7:2 ratio—Systems 1 and 2 above. It is from this test that Systems 1 and 2 were discovered. The acids were added at […] individually and combination of the esters with the acids were added at the […] in the plate assay.
as §2, with “Tests were conducted as similarly described for Systems 1 and 2 above (FIG. 9) to ascertain” for “FIG. 9 depicts”

Phytophthora cinnamomi = assay: as above; conditions: 30 hr at 22° C.; esters with 1:1 v/v propanoic acid and isobutryic acid (acids to ester 7:2 v/v), 9 ul; acids 7 ul
Procedure: as §1, §2, §3, §4
as §2, with “Tests were conducted as similarly described for Systems 1 and 2 above (FIG. 9) to ascertain” for “FIG. 9 depicts”

Pythium ultimum = assay: as above; conditions: 30 hr at 22° C.; esters with 1:1 v/v propanoic acid and isobutryic acid (acids to ester 7:2 v/v), 9 ul; acids 7 ul
Procedure: as §1, §2, §3, §4
as §2, with “Tests were conducted as similarly described for Systems 1 and 2 above (FIG. 9) to ascertain” for “FIG. 9 depicts”

Rhizoctonia solani = assay: as above; conditions: 30 hr at 22° C.; esters with 1:1 v/v propanoic acid and isobutryic acid (acids to ester 7:2 v/v), 9 ul; acids 7 ul
Procedure: as §1, §2, §3, §4
as §2, with “Tests were conducted as similarly described for Systems 1 and 2 above (FIG. 9) to ascertain” for “FIG. 9 depicts”

Trichoderma viridae = assay: as above; conditions: 30 hr at 22° C.; esters with 1:1 v/v propanoic acid and isobutryic acid (acids to ester 7:2 v/v), 9 ul; acids 7 ul
Procedure: as §1, §2, §3, §4
as §2, with “Tests were conducted as similarly described for Systems 1 and 2 above (FIG. 9) to ascertain” for “FIG. 9 depicts”

Verticillium dahliae = assay: as above; conditions: 30 hr at 22° C.; esters with 1:1 v/v propanoic acid and isobutryic acid (acids to ester 7:2 v/v), 9 ul; acids 7 ul
Procedure: as §1, §2, §3, §4
as §2, with “Tests were conducted as similarly described for Systems 1 and 2 above (FIG. 9) to ascertain” for “FIG. 9 depicts”

Sclerotinia sclerotiorum = assay: as above; conditions: 30 hr at 22° C.; esters with 1:1 v/v propanoic acid and isobutryic acid (acids to ester 7:2 v/v), 9 ul; acids 7 ul
Procedure: as §1, §2, §3
The tests were conducted over the course of 30 hr at 22° C. Measurements were made on appropriate controls and thus the percentage of inhibition calculations could be made on treatments vs the growth on a control organism (non-treated). The bacteria and yeast like organisms were evaluated on the basis of relative growth rates after 30 hr. […] The acids were added at […] individually and combination of the esters with the acids were added at the […] in the plate assay.
as §2, with “Tests were conducted as similarly described for Systems 1 and 2 above (FIG. 9) to ascertain” for “FIG. 9 depicts”

Aspergillus fumigatus = assay: as above; conditions: 30 hr at 22° C.; esters with 1:1 v/v propanoic acid and isobutryic acid (acids to ester 7:2 v/v), 9 ul; acids 7 ul
Procedure: as §1, §3, §4

Fusarium subglutinans = assay: as above; conditions: 30 hr at 22° C.; esters with 1:1 v/v propanoic acid and isobutryic acid (acids to ester 7:2 v/v), 9 ul; acids 7 ul
Procedure: as §1, §3, §4

Bacillus subtilus = assay: plate bioassay of volatile test mixtures, relative growth of streak; conditions: relative growth after 30 hr at 22° C.; esters with 1:1 v/v propanoic acid and isobutryic acid (7:2 v/v), 9 ul; acids 7 ul
Procedure: as §1, §2, §3, §4
as §2, with “Tests were conducted as similarly described for Systems 1 and 2 above (FIG. 9) to ascertain” for “FIG. 9 depicts”

Candida albicans = assay: as above; conditions: relative growth after 30 hr at 22° C.; esters with 1:1 v/v propanoic acid and isobutryic acid (7:2 v/v), 9 ul; acids 7 ul
Procedure: as §1, §2, §3, §4
as §2, with “Tests were conducted as similarly described for Systems 1 and 2 above (FIG. 9) to ascertain” for “FIG. 9 depicts”

Escherichia coli = assay: as above; conditions: relative growth after 30 hr at 22° C.; esters with 1:1 v/v propanoic acid and isobutryic acid (7:2 v/v), 9 ul; acids 7 ul
Procedure: as §1, §2, §3, §4
as §2, with “Tests were conducted as similarly described for Systems 1 and 2 above (FIG. 9) to ascertain” for “FIG. 9 depicts”

Saccharomyces cerevicae = assay: as above; conditions: relative growth after 30 hr at 22° C.; esters with 1:1 v/v propanoic acid and isobutryic acid (7:2 v/v), 9 ul; acids 7 ul
Procedure: as §1, §2, §3, §4
as §2, with “Tests were conducted as similarly described for Systems 1 and 2 above (FIG. 9) to ascertain” for “FIG. 9 depicts”

CCOC(=O)C(C)C [Ethyl Isobutyrate]
inhibition of Cercospora beticola (Cercospora beticola): 95%
inhibition of Phytophthora cinnamomi (Phytophthora cinnamomi): 100%
inhibition of Pythium ultimum (Pythium ultimum): 100%
inhibition of Rhizoctonia solani (Rhizoctonia solani): 100%
inhibition of Trichoderma viridae (Trichoderma viridae): 67%
inhibition of Verticillium dahliae (Verticillium dahliae): 80%
inhibition of Sclerotinia sclerotiorum (Sclerotinia sclerotiorum): 90%
inhibition of Aspergillus fumigatus (Aspergillus fumigatus): 80%
inhibition of Fusarium subglutinans (Fusarium subglutinans): 67%
growth of Bacillus subtilus (Bacillus subtilus): No Growth
growth of Candida albicans (Candida albicans): Growth Observed
growth of Escherichia coli (Escherichia coli): No Growth
growth of Saccharomyces cerevicae (Saccharomyces cerevicae): Growth Observed

CCCOC(=O)C(C)C [Propyl Isobutyrate]
inhibition of Cercospora beticola (Cercospora beticola): 95%
inhibition of Phytophthora cinnamomi (Phytophthora cinnamomi): 87%
inhibition of Pythium ultimum (Pythium ultimum): 98%
inhibition of Rhizoctonia solani (Rhizoctonia solani): 97%
inhibition of Trichoderma viridae (Trichoderma viridae): 33%
inhibition of Verticillium dahliae (Verticillium dahliae): 88%
inhibition of Sclerotinia sclerotiorum (Sclerotinia sclerotiorum): 40%
inhibition of Aspergillus fumigatus (Aspergillus fumigatus): 50%
inhibition of Fusarium subglutinans (Fusarium subglutinans): 50%
growth of Bacillus subtilus (Bacillus subtilus): Inhibited
growth of Candida albicans (Candida albicans): Growth Observed
growth of Escherichia coli (Escherichia coli): Inhibited
growth of Saccharomyces cerevicae (Saccharomyces cerevicae): Growth Observed

CCCCOC(=O)C(C)C [Butyl Isobutyrate]
inhibition of Cercospora beticola (Cercospora beticola): 95%
inhibition of Phytophthora cinnamomi (Phytophthora cinnamomi): 0%
inhibition of Pythium ultimum (Pythium ultimum): 100%
inhibition of Rhizoctonia solani (Rhizoctonia solani): 97%
inhibition of Trichoderma viridae (Trichoderma viridae): 40%
inhibition of Verticillium dahliae (Verticillium dahliae): 60%
inhibition of Sclerotinia sclerotiorum (Sclerotinia sclerotiorum): 0%
inhibition of Aspergillus fumigatus (Aspergillus fumigatus): 0%
inhibition of Fusarium subglutinans (Fusarium subglutinans): 0%
growth of Bacillus subtilus (Bacillus subtilus): No Growth
growth of Candida albicans (Candida albicans): Growth Observed
growth of Escherichia coli (Escherichia coli): No Growth
growth of Saccharomyces cerevicae (Saccharomyces cerevicae): Growth Observed

CC(=O)OCC(C)C [Isobutyl Acetate]
inhibition of Cercospora beticola (Cercospora beticola): 95%
inhibition of Phytophthora cinnamomi (Phytophthora cinnamomi): 67%
inhibition of Pythium ultimum (Pythium ultimum): 100%
inhibition of Rhizoctonia solani (Rhizoctonia solani): 57%
inhibition of Trichoderma viridae (Trichoderma viridae): 20%
inhibition of Verticillium dahliae (Verticillium dahliae): 60%
inhibition of Sclerotinia sclerotiorum (Sclerotinia sclerotiorum): 20%
inhibition of Aspergillus fumigatus (Aspergillus fumigatus): 0%
inhibition of Fusarium subglutinans (Fusarium subglutinans): 67%
growth of Bacillus subtilus (Bacillus subtilus): Inhibited
growth of Candida albicans (Candida albicans): Growth Observed
growth of Escherichia coli (Escherichia coli): Inhibited
growth of Saccharomyces cerevicae (Saccharomyces cerevicae): Growth Observed

CCC(=O)OCC(C)C [Isobutyl Propionate]
inhibition of Cercospora beticola (Cercospora beticola): 100%
inhibition of Phytophthora cinnamomi (Phytophthora cinnamomi): 33%
inhibition of Pythium ultimum (Pythium ultimum): 100%
inhibition of Rhizoctonia solani (Rhizoctonia solani): 100%
inhibition of Trichoderma viridae (Trichoderma viridae): 40%
inhibition of Verticillium dahliae (Verticillium dahliae): 88%
inhibition of Sclerotinia sclerotiorum (Sclerotinia sclerotiorum): 80%
inhibition of Aspergillus fumigatus (Aspergillus fumigatus): 80%
inhibition of Fusarium subglutinans (Fusarium subglutinans): 67%
growth of Bacillus subtilus (Bacillus subtilus): No Growth
growth of Candida albicans (Candida albicans): Growth Observed
growth of Escherichia coli (Escherichia coli): No Growth
growth of Saccharomyces cerevicae (Saccharomyces cerevicae): Growth Observed

CCCC(=O)OCCC(C)C [Isoamyl Butyrate]
inhibition of Cercospora beticola (Cercospora beticola): 100%
inhibition of Phytophthora cinnamomi (Phytophthora cinnamomi): 100%
inhibition of Pythium ultimum (Pythium ultimum): 100%
inhibition of Rhizoctonia solani (Rhizoctonia solani): 100%
inhibition of Trichoderma viridae (Trichoderma viridae): 90%
inhibition of Verticillium dahliae (Verticillium dahliae): 100%
inhibition of Sclerotinia sclerotiorum (Sclerotinia sclerotiorum): 95%
inhibition of Aspergillus fumigatus (Aspergillus fumigatus): 90%
inhibition of Fusarium subglutinans (Fusarium subglutinans): 100%
growth of Bacillus subtilus (Bacillus subtilus): No Growth
growth of Candida albicans (Candida albicans): No Growth
growth of Escherichia coli (Escherichia coli): No Growth
growth of Saccharomyces cerevicae (Saccharomyces cerevicae): Growth Observed
